We go through three compounds from patent publication US7776911B2 (priority 2005, dated 2010).

Experiment [1] concerns P. berghei. As to the kind of experiment: Protection of mice infected with P. berghei (mortality, parasite count in blood). Type of experiment: in vivo. The protocol:
(§1) Appropriate solvent controls were used. Parasite growth was measured by staining the slides with Giemsa as well as [α3H]-hypoxanthine uptake. In the latter case, the cultured cells were lysed with water and the parasites collected by filtration, washed and radioactivity measured. Adult f mice (40-50 g) were infected with P. berghei by intraperitoneal injection of an aliquot of infected mouse blood. After 24 hr, the animals were given a single injection of different amounts of artemisinin derivative at a dose of 5 mg/mouse. The oral feeding was repeated after 24 hr and 48 hr. Parasite count was measured in blood before and drug therapy at different time intervals using Giemsa to stain the slides. All the infected mice die in a span of 5-8 days and the efficacy of the drugs given singly or in combination was measured in terms of parasite clearance in blood and protection against mortality.
Striking results were obtained in terms of parasite clearance and protection against mortality. The experiments were carried out with 6 mice per batch and the experiments were repeated at least 3 times. The results presented in FIG. 3 represent those obtained in a typical experiment. The results obtained in the 2nd and 3rd experiments are identical in pattern. The average pattern obtained with the infected animals is as follows. All the infected animals die in about 5-8 days. […] A single injection of artemisinin derivative (α,β-arteether) at a dose of 500 μg/mouse results in death of animals in 10-12 days. […] Treatment with a single injection α,β-arteether at 750 μg and 1.5 mg results in death of animals between 20-26 days and 32-38 days respectively. […] The animals continue to live normally for several months. This picture is also supported by parasite load in blood (FIG. 4).
Methodology; Mice (−40 g) were infected ˜ with P. berghei by intraperitoneal infection. After 24 hrs, the animals received a single injection of different concentrations of a derivative of artemisinin (α,β-arteether) (500˜g to 1.5 mg) by the intramuscular route. […] The oral treatment was repeated after 24 hr and 48 hr. Blood smears were made from the mice at different day intervals and parasites stained with Giemsa. […] The experiments were repeated thrice with 6 mice in each group.

The test system of experiment [2] is P. falciparum (chloroquine-resistant). As to the kind of experiment: P. falciparum culture growth by [3H]-hypoxanthine uptake, drugs singly or in combination, with isobolographic analysis. Type of experiment: cell-based, Plasmodium falciparum. The settings on record: 48 hrs, starting parasitemia 2-3%. As for the experimental part:
as §1
The potency of the combination was assessed by isobolographic characterization of the drug interactions. The additive or synergistic or antagonistic effects were assessed based on the following interaction index:
When I is less than 1 the drugs interact synergistically and the isobol bows below the line of additivity. When I is equal to 1 the isobol is coincident with the line of additivity and the interaction is additive. When I is greater than 1, the isobol bows above the line of additivity and the interaction is antagonistic. […] The interaction between curcumin and artemisinin is thus clearly synergistic.
P. falciparum (chloroquine-resistant) was maintained in culture using human O+ve red cells and serum by the candle jar method as per standard protocols. […] Appropriate solvent controls were used. Parasite growth was quantitatively measured using 3[H]-hypoxanthine uptake. The cultured cells were incubated for 48 hrs and then the parasites were collected by filtration after lysis of the cells. The filters were extensively washed and then radioactivity measured. […] The potency of the combination was assessed by isobolographic characterization of drug interactions.
The T values ranged from 0.7 to 0.85 in all combinations. The isobol bowling below the line of additivity and the T values being less than 1 indicate that the curcumin-artemisinin. Interaction is clearly synergistic

For a further experiment, the system named is P. falciparum. The settings on record: culture of P. falciparum; cited from earlier work.
For experiment [3], the system named is P. berghei. The following applies: mice infected with P. berghei; cited from earlier work.

Each structure is given as a SMILES string. Entries after “also recorded” stand apart in the source; their conditions may differ.

For the compound `CCO[C@H]1O[C@@H]2O[C@@]3(C)CC[C@H]4[C@H](C)CC[C@@H]([C@H]1C)[C@@]24OO3` [α,β-arteether], the death of animals with P. berghei [1] (single injection 750 μg per mouse) fell in the range of 20 to 26 days; with P. berghei [1] (single injection 1.5 mg per mouse) it was 32 to 38 days. For the same compound, the “parasite load in blood” value in the experiment with P. berghei [1] (single injection, Giemsa stained blood smears) is reported as “clears the parasites in blood initially, but there is recrudescence; also recorded: clears parasites in blood initially, but there was recrudescence”.
Regarding `C[C@@H]1CC[C@H]2[C@@H](C)C(=O)O[C@@H]3O[C@@]4(C)CC[C@@H]1[C@]32OO4` [artemisinin], the IC50 in experiment [2] is ~0.055 µM; in experiment [2] (Plasmodium falciparum), 0.045 to 0.055 µM.
Consider `COc1cc(/C=C/C(=O)CC(=O)/C=C/c2ccc(O)c(OC)c2)ccc1O` [curcumin], for which the figures for the IC50 in experiment [2] and in experiment [2] (Plasmodium falciparum) were ~15 µM and 15 to 17 µM, respectively. The death of animals in the experiment on P. berghei [1] (curcumin alone, 3 day oral treatment (5 mg), untreated infected mice die in 5-8 days) lay in the range of 10 to 12 days. Moreover, the antimalarial activity result in the experiment on P. falciparum and with P. berghei [3] was “has antimalarial activity” throughout.

For orientation: IC50 means the concentration needed to halve the response being measured.
